Values after ≈ are worked out from the molar mass of the structure shown.
What was measured:
Pimephales promelas = conditions: chronic/long-term; duration: 265 days; growth
Lepomis macrochirus = conditions: acute; duration: 96 hours; mortality
Apis mellifera = conditions: acute; duration: 48 hours; dermal; mortality
Daphnia magna = conditions: chronic/long-term; duration: 21 days; reproduction
Oryctolagus sp. = conditions: reproduction developmental; body weight
Aphidius rhopalosiphi = assay: LR50; higher = less toxic; conditions: not reported; mortality
Bibionidae = conditions: chronic/long-term; duration: 28 days

Row | Compound | NOEC (Anas platyrhynchos; reproductive) | LC50 (Anas platyrhynchos; short-term, oral, feed, mortality) | NOEC (Pimephales promelas) | LD50 (Rattus norvegicus; acute, oral, mortality) | NOEL (Rattus norvegicus; chronic) | LOAEL (Rattus norvegicus; chronic, duration: 2 years, histopathology: nonneoplastic) | NOAEL (Rattus norvegicus; reproduction developmental, no effects) | LC50 (Tagia sp.; acute, duration: 14 days, mortality) | LC50 (Colinus virginianus; acute, oral, diet, mortality) | LD50 (Colinus virginianus; acute, oral, mortality) | NOEC (Colinus virginianus; reproduction developmental) | LC50 (Lepomis macrochirus) | LD50 (Apis mellifera) | NOEC (Daphnia magna) | NOAEL (Oryctolagus sp.) | LR50 (Aphidius rhopalosiphi) | NOEC (Bibionidae) | NOEC (Tagia sp.; chronic/long-term, duration: 56 days)
1 | COC(=O)C(C)Oc1ccc(Oc2ccc(Cl)cc2Cl)cc1 (racemic) [(+-)-Diclofop-methyl] | 25 mg/kg-day | > 1100 mg/kg-day | 0.015 mg/L | 512 mg/kg-day | 7.8 mg/kg-day | 0.2 mg/kg-day | 3 mg/kg-day | > 1000 mg/kg | > 2880 mg/kg-day | > 2250 mg/kg-day | 20 mg/kg-day | 0.15 mg/L (≈ 0.44 µM) | > 100 µg/piece | 0.081 mg/L | 0.3 mg/kg-day | 30.1 g/ha | – | –
2 | CC(Oc1ccc(Oc2ccc(Cl)cc2Cl)cc1)C(=O)O (stereo not drawn) [Diclofop] | – | – | – | – | – | – | – | – | – | – | – | – | – | – | – | – | 10 mg/L | 100 mg/kg

Reference: EPA's ToxValDB 9.5 (doi:10.2903/j.efsa.2010.1718)
